Data published in patent publication US7563461B2, “Zinc salt compositions for the prevention of dermal and mucosal irritation” (The Trustees of Columbia University in the City of New York, priority 2002, dated 2009).

Columns and labels:
vaginal mucosa = assay: Nonoxynol-9-induced irritation of vaginal mucosa in a rabbit model; conditions: gel-based lubricant containing 9% nonoxynol-9, rabbits
Excerpt: This animal model was used to evaluate the anti-irritant efficacy of various zinc salt compositions in vivo.
Two ml of the zinc salt lubricant compositions indicated in Table 3 was instilled into the vagina of each rabbit daily for five consecutive days. At the end of this period, a veterinary pathologist evaluated each animal both macroscopically and microhistopathologically and scored the degree of vaginal irritation that was present. Irritation was quantified as follows: 0=No irritation, 1-4=Minimal Irritant, 5-8=Mild Irritation, 9-11=Moderate Irritation, 12-16=Severe Irritation.

[1] = cited from earlier work

Substance	irritation of the vaginal mucosa (vaginal mucosa)	water solubility (in words) [1]
nonoxynol-9	mild to moderate irritation	
zinc picolinate		moderately water soluble
